Laboratory results from US20230265151A1, “GIP/GLP1 CO-AGONIST COMPOUNDS” (priority 2020, published 2023).
Like-named read-outs stand apart in the source and are kept apart here.

Tests used:
[1] = molecular target: T1, human Gcg receptor (hGcgR) (Homo sapiens, UniProt P47871); assay: [125I]-Glucagon binding, SPA with membranes of HEK293 cells expressing hGcgR; details: human GcgR; geometric mean (SEM, n); read-out: Binding Affinity Ki, nM (SEM, n) hGCGR
T1 construct: expressed in transfected cells; crude membranes
T1 sequence (P47871 26-477): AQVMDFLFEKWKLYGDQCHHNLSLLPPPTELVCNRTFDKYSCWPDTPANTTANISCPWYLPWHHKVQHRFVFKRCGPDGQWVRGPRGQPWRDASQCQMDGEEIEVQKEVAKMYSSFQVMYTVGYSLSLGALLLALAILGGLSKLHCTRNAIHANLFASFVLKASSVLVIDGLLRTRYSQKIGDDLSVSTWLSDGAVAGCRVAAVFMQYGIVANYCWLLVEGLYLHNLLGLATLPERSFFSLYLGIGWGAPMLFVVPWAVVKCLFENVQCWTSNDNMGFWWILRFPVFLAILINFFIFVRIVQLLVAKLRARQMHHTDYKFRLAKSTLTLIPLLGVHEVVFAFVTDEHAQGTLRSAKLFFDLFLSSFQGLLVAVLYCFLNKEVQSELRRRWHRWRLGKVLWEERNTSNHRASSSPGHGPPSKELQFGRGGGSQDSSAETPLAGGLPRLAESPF

hGIPR = molecular target: T2, hGIPR (Homo sapiens, UniProt P48546); assay: Functional cAMP formation (HTRF) in HEK-293 clonal cells expressing hGIPR, 0.1% bovine casein, without or with 1.0% human serum albumin; format: cell-based; details: for EC50: geometric mean, read-out: hGIPR EC50, nM (SEM, n); for Emax: read-out: hGIPR Emax, % ± SEM
T2 construct: expressed in transfected cells
T2 sequence (P48546 22-466): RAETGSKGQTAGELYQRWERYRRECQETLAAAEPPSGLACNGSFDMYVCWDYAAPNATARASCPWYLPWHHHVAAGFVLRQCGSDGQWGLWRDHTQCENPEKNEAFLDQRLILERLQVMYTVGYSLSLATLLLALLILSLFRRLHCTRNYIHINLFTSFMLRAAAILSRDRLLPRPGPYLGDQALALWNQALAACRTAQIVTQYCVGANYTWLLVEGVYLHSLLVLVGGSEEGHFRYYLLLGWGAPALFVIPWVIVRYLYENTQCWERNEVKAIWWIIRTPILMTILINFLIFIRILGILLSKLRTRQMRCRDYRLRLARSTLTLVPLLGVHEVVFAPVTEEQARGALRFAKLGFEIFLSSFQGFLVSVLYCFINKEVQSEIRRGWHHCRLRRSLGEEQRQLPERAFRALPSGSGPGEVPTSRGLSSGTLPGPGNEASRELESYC
Method in brief: (§1)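 Cells were stimulated with peptide for 30 min at 37° C, then intracellular cAMP was measured by competitive HTRF (665/620 nm ratio) and converted to nM using a cAMP standard curve. Relative EC50 and Emax came from four-parameter logistic fits of percent maximal response against peptide concentration.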

hGCGR = molecular target: T3, hGCGR (Homo sapiens, UniProt P47871); assay: Functional cAMP formation (HTRF) in HEK-293 clonal cells expressing hGCGR, 0.1% bovine casein, without or with 1.0% human serum albumin; format: cell-based; details: geometric mean, read-out: hGCGR EC50, nM (SEM, n)
T3 construct: expressed in transfected cells
T3 sequence (P47871 26-477): as the sequence (P47871 26-477) above
Method in brief: as §1

hGLP-1R = hGLP-1R (Homo sapiens, UniProt P43220); assay: Functional cAMP formation (HTRF) in HEK-293 clonal cells expressing hGLP-1R, 0.1% bovine casein, without or with 1.0% human serum albumin; format: cell-based; parameters: expressed in transfected cells; details: for EC50: geometric mean, read-out: hGLP-1R EC50, nM (SEM, n); for Emax: read-out: hGLP-1R Emax, % ± SEM
hGLP-1R, sequence (P43220 24-463): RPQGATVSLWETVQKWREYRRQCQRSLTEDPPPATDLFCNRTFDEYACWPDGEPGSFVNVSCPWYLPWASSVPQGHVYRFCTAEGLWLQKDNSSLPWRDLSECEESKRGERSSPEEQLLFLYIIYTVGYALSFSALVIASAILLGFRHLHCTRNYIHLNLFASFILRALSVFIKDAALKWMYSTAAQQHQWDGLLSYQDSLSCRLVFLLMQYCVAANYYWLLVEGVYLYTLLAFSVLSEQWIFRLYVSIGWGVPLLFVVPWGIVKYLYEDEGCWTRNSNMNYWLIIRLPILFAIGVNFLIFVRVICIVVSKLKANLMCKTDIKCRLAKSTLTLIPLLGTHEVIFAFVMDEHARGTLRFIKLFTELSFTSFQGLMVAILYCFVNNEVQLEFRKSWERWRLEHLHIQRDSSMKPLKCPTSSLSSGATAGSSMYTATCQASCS
Method in brief: as §1

[2] = 0.1% bovine casein and 1.0% human serum albumin, 37° C.
[3] = HEK293, 0.1% bovine casein and 1.0% human serum albumin, 37° C., percent of maximal response to GIP(1-42)NH2
[4] = cAMP, incubated at 37° C., 0.1% bovine casein (no human serum albumin)
[5] = HEK293, 0.1% bovine casein and 1.0% human serum albumin, 37° C., percent of maximal response to GLP-1(7-36)NH2
[6] = HEK293, percent of maximal response to GIP(1-42)NH2, 37° C., 0.1% bovine casein, arithmetic mean
[7] = HEK293, percent of maximal response to GLP-1(7-36)NH2, 37° C., 0.1% bovine casein, arithmetic mean

Work on CC[C@H](C)[C@H](NC(=O)[C@H](CC(C)C)NC(=O)[C@](C)(Cc1ccc(O)cc1)NC(=O)[C@@H](CCC(=O)O)NC(=O)[C@@H](NC(=O)[C@H](Cc1ccccc1)NC(=O)[C@H](CCC(=O)O)NC(=O)C(C)(C)NC(=O)[C@H](CCC(N)=O)NC(=O)[C@H](C)NC(=O)[C@H](CCCCNC(=O)CC[C@H](NC(=O)COCCOCCNC(=O)COCCOCCNC(=O)CCCCCCCCCCCCC(=O)O)C(=O)O)NC(=O)[C@H](CCCN)NC(=O)[C@H](CC(=O)O)NC(=O)[C@H](CC(C)C)NC(=O)[C@](C)(CC(C)C)NC(=O)[C@@H](NC(=O)[C@H](CO)NC(=O)[C@H](Cc1ccncc1)NC(=O)[C@H](CC(=O)O)NC(=O)[C@H](CO)NC(=O)[C@@H](NC(=O)[C@](C)(Cc1ccccc1F)NC(=O)[C@@H](NC(=O)CNC(=O)[C@H](CCC(=O)O)NC(=O)C(C)(C)NC(=O)[C@@H](N)Cc1ccc(O)cc1)[C@@H](C)O)[C@@H](C)O)[C@@H](C)CC)[C@@H](C)CC)C(=O)N[C@@H](CCC(=O)O)C(=O)NCC(=O)NCC(=O)N[C@@H](CCCCNC(=O)CC[C@H](NC(=O)COCCOCCNC(=O)COCCOCCNC(=O)CCCCCCCCCCCCC(=O)O)C(=O)O)C(=O)N[C@@H](CO)C(=O)N[C@@H](CO)C(=O)NCC(=O)N[C@@H](C)C(=O)N1CCC[C@H]1C(=O)N1CCC[C@H]1C(=O)N1CCC[C@H]1C(=O)N[C@@H](CO)C(N)=O [Example 41] yielded a Ki [1] greater than 957 nM, an EC50 (hGIPR; [2]) of 0.405 nM and an Emax (hGIPR; [3]) of 88.5 ± 0.638%. It also gave an EC50 (hGIPR; [4]) of 0.0108 nM, an EC50 (hGCGR; [2]) greater than 9950 nM and an EC50 (hGCGR; [4]) greater than 9950 nM. It also gave an EC50 (hGLP-1R; [2]) of 27.2 nM and an EC50 (hGLP-1R; [4]) of 0.691 nM.

With CC[C@H](C)[C@H](NC(=O)[C@H](CC(C)C)NC(=O)[C@](C)(Cc1ccc(O)cc1)NC(=O)[C@@H](CCC(=O)O)NC(=O)[C@@H](NC(=O)[C@H](Cc1ccccc1)NC(=O)[C@H](CCC(=O)O)NC(=O)C(C)(C)NC(=O)[C@H](CCC(N)=O)NC(=O)[C@H](C)NC(=O)[C@H](CCCCNC(=O)COCCOCCNC(=O)CC[C@H](NC(=O)COCCOCCNC(=O)CCCCCCCCCCCCC(=O)O)C(=O)O)NC(=O)[C@H](CCCN)NC(=O)[C@H](CC(=O)O)NC(=O)[C@H](CC(C)C)NC(=O)[C@](C)(CC(C)C)NC(=O)[C@@H](NC(=O)[C@H](CO)NC(=O)[C@H](Cc1ccncc1)NC(=O)[C@H](CC(=O)O)NC(=O)[C@H](CO)NC(=O)[C@@H](NC(=O)[C@](C)(Cc1ccccc1F)NC(=O)[C@@H](NC(=O)CNC(=O)[C@H](CCC(=O)O)NC(=O)C(C)(C)NC(=O)[C@@H](N)Cc1ccc(O)cc1)[C@@H](C)O)[C@@H](C)O)[C@@H](C)CC)[C@@H](C)CC)C(=O)N[C@@H](CCC(=O)O)C(=O)NCC(=O)NCC(=O)N[C@@H](CCCCNC(=O)COCCOCCNC(=O)CC[C@H](NC(=O)COCCOCCNC(=O)CCCCCCCCCCCCC(=O)O)C(=O)O)C(=O)N[C@@H](CO)C(=O)N[C@@H](CO)C(=O)NCC(=O)N[C@@H](C)C(=O)N1CCC[C@H]1C(=O)N1CCC[C@H]1C(=O)N1CCC[C@H]1C(=O)N[C@@H](CO)C(N)=O [Example 43] the Ki [1] was greater than 957 nM, the EC50 (hGIPR; [2]) was 0.375 nM and the EC50 (hGIPR; [4]) was 0.0123 nM. It also gave an EC50 (hGCGR; [2]) greater than 9950 nM, an EC50 (hGCGR; [4]) greater than 9950 nM and an EC50 (hGLP-1R; [2]) of 35.6 nM. For the same compound, the Emax (hGLP-1R; [5]) was 98.7%.

With CC[C@H](C)[C@H](NC(=O)[C@H](CC(C)C)NC(=O)[C@](C)(Cc1ccc(O)cc1)NC(=O)[C@@H](CCC(=O)O)NC(=O)[C@@H](NC(=O)[C@H](Cc1ccccc1)NC(=O)[C@H](CCC(=O)O)NC(=O)C(C)(C)NC(=O)[C@H](CCC(N)=O)NC(=O)[C@H](C)NC(=O)[C@H](CCCCNC(=O)COCCOCCNC(=O)COCCOCCNC(=O)CC[C@H](NC(=O)CCCCCCCCCCCCC(=O)O)C(=O)O)NC(=O)[C@H](CCCN)NC(=O)[C@H](CC(=O)O)NC(=O)[C@H](CC(C)C)NC(=O)[C@](C)(CC(C)C)NC(=O)[C@@H](NC(=O)[C@H](CO)NC(=O)[C@H](Cc1ccncc1)NC(=O)[C@H](CC(=O)O)NC(=O)[C@H](CO)NC(=O)[C@@H](NC(=O)[C@](C)(Cc1ccccc1)NC(=O)[C@@H](NC(=O)CNC(=O)[C@H](CCC(=O)O)NC(=O)C(C)(C)NC(=O)[C@@H](N)Cc1ccc(O)cc1)[C@@H](C)O)[C@@H](C)O)[C@@H](C)CC)[C@@H](C)CC)C(=O)N[C@@H](CCC(=O)O)C(=O)NCC(=O)NCC(=O)N[C@@H](CCCCNC(=O)COCCOCCNC(=O)COCCOCCNC(=O)CC[C@H](NC(=O)CCCCCCCCCCCCC(=O)O)C(=O)O)C(=O)N[C@@H](CO)C(=O)N[C@@H](CO)C(=O)NCC(=O)N[C@@H](C)C(=O)N1CCC[C@H]1C(=O)N1CCC[C@H]1C(=O)N1CCC[C@H]1C(=O)N[C@@H](CO)C(N)=O [Example 44] the Ki [1] was greater than 966 nM, the EC50 (hGIPR; [2]) was 1.68 nM and the Emax (hGIPR; [3]) was 87%. For the same compound, the Emax (hGIPR; [6]) was 92.2 ± 6.17%, the EC50 (hGCGR; [2]) was greater than 9950 nM and the EC50 (hGCGR; [4]) was greater than 9950 nM. The EC50 (hGLP-1R; [2]) was 125 nM, the Emax (hGLP-1R; [5]) was 94.5% and the Emax (hGLP-1R; [7]) was 90.9 ± 10.4%.

For CC[C@H](C)[C@H](NC(=O)[C@H](CC(C)C)NC(=O)[C@](C)(Cc1ccc(O)cc1)NC(=O)[C@@H](CCC(=O)O)NC(=O)[C@@H](NC(=O)[C@H](Cc1ccccc1)NC(=O)[C@H](CCC(=O)O)NC(=O)C(C)(C)NC(=O)[C@H](CCC(N)=O)NC(=O)[C@H](C)NC(=O)[C@H](CCCCNC(=O)COCCOCCNC(=O)COCCOCCNC(=O)CC[C@H](NC(=O)CCCCCCCCCCCCC(=O)O)C(=O)O)NC(=O)[C@H](CCCN)NC(=O)[C@H](CC(=O)O)NC(=O)[C@H](CC(C)C)NC(=O)[C@](C)(CC(C)C)NC(=O)[C@@H](NC(=O)[C@H](CO)NC(=O)[C@](C)(Cc1ccccc1)NC(=O)[C@H](CC(=O)O)NC(=O)[C@H](CO)NC(=O)[C@@H](NC(=O)[C@](C)(Cc1ccccc1)NC(=O)[C@@H](NC(=O)CNC(=O)[C@H](CCC(=O)O)NC(=O)C(C)(C)NC(=O)[C@@H](N)Cc1ccc(O)cc1)[C@@H](C)O)[C@@H](C)O)[C@@H](C)CC)[C@@H](C)CC)C(=O)N[C@@H](CCC(=O)O)C(=O)NCC(=O)NCC(=O)N[C@@H](CCCCNC(=O)COCCOCCNC(=O)COCCOCCNC(=O)CC[C@H](NC(=O)CCCCCCCCCCCCC(=O)O)C(=O)O)C(=O)N[C@@H](CO)C(=O)N[C@@H](CO)C(=O)NCC(=O)N[C@@H](C)C(=O)N1CCC[C@H]1C(=O)N1CCC[C@H]1C(=O)N1CCC[C@H]1C(=O)N[C@@H](CO)C(N)=O [Example 45], the Ki [1] was greater than 966 nM, the Emax (hGIPR; [3]) was 72.5% and the Emax (hGIPR; [6]) was 91.3 ± 1.04%. The EC50 (hGCGR; [2]) was greater than 9950 nM, the EC50 (hGCGR; [4]) was greater than 9950 nM and the Emax (hGLP-1R; [5]) was 109%. It also gave an Emax (hGLP-1R; [7]) of 85.7 ± 8.37% and an EC50 (hGLP-1R; [4]) of 9.18 nM.
